Test results: patent EP1475385A1 (Newron Pharmaceuticals S.p.A., priority 2003, dated 2004)
Where two headings read alike, the source gives them in different places.

How the values were obtained:
KMO = KMO (Homo sapiens, UniProt O15229); details: reported in WO 98/40344; read-out: IC50 for KMO inhibition; cited from earlier work
brain KMO = biological target: T1, brain KMO (Rattus norvegicus, UniProt O88867); assay: In vitro KMO activity determination (rat brain mitochondria preparation, HPLC of 3-OH-KYN formation); assay type: biochemical
T1 construct: from tissue; host or cells: rat brain cortex, mitochondrial fraction (male Wistar rats)
T1 sequence (O88867 whole entry): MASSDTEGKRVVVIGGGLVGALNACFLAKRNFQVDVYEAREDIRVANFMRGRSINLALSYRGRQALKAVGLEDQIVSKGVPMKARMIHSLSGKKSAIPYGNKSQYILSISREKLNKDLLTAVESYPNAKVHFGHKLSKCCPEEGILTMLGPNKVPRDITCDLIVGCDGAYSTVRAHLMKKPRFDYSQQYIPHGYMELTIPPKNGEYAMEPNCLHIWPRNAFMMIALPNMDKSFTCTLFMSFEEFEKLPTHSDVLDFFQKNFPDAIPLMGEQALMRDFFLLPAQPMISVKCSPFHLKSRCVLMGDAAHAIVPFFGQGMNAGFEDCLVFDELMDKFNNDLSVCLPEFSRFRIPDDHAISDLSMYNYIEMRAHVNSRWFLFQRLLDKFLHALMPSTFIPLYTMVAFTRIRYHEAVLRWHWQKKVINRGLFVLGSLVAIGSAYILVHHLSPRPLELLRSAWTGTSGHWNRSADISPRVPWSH
Method: Rat brain mitochondria preparation: Male Wistar rats were sacrificed and brain quickly removed, cortex was dissected out on ice and homogenized in 2.5 volumes of ice-cold 0.32 M saccarose using a glass-Teflon homogenizer. After centrifugation at 600 g for 10 min at 4°C, the supernatant was stored and the pellet was washed and centrifuged again. The two supernatants were pooled and centrifuged at 10,000 g for 10 min at 4°C. The pellet was washed in fresh saccarose and centrifuged twice at 15,000 g for 10 min at 4°C. The pellet (corresponding to the mitochondrial fraction) was resuspended in 2.5 volumes of ice-cold 20 mM potassium phosphate buffer containing 0.14 M KCl, pH 7.0. Protein content was determined by BCA protein assay kit from Pierce.
In vitro KMO activity determination: The enzyme activity was evaluated by measuring by HPLC the formation of 3-OH-KYN in homogenates incubated in the presence of a fixed concentration of KYN (close to the enzyme Km that in our experimental conditions is 30 µM) […]
IC50 values were determined from three independent inhibition curves using at least seven different inhibitor concentrations using non linear regression analysis (best fitting aided-computer program.

GLU = assay: Striatal GLU release by transcerebral microdialysis (caudate); assay type: in vivo, Wistar rats; details: caudate dialysate
Method: (§1) Striatal GLU release: Transcerebral microdialysis tubing having an exposed length of 1 mm for each caudate, were implanted through small burr holes drilled in the skull of anesthetized male Wistar rats. Approximately twelve hours after surgery, in freely moving animals, the membranes were perfused at a flow rate of 3.5 µl/min. After a washout period of approximately one hour, fractions were collected to determine the basal output of KYNA and of GLU. KYNA was measured using HPLC with post column derivatization and fluorometric detection as previously reported. HPLC separation and fluorometric detection was also used for quantitative measurements of GLU (Carpenedo et al 2001, Europ. J. Neuroscience 13, 2141-2147).

KYNA [1] = assay: Measurement of hippocampal KYNA levels by microdialysis; assay type: in vivo, rats
Method: Measurement of hippocampal kyna levels: Microdialysis was performed in adult, male rats (Charles-River; 200-250 g). Under anesthesia, a microdialysis probe (CMA/10, membrane length: 2 mm, Carnegie […], Stockholm, Sweden) was implanted vertically into the brain, extending throughout the dorsal hippocampus. On the next day, the probe was connected to a microperfusion pump, and the hippocampus of the unanesthetized rat was perfused with Ringer solution at a speed of 1 microliter/min. Dialysate was collected every 30 min. The concentration of KYNA in the dialysis samples was determined by HPLC with fluorimetric detection, using the analytical procedure described by Wu et al. (Eur. J. Neurosci., 4: 1264-1270,1992).

KYNA [2] = assay: KYNA output in caudate dialysate by transcerebral microdialysis; assay type: in vivo, Wistar rats
Method: as §1

KMO, sequence (O15229 whole entry, species assumed): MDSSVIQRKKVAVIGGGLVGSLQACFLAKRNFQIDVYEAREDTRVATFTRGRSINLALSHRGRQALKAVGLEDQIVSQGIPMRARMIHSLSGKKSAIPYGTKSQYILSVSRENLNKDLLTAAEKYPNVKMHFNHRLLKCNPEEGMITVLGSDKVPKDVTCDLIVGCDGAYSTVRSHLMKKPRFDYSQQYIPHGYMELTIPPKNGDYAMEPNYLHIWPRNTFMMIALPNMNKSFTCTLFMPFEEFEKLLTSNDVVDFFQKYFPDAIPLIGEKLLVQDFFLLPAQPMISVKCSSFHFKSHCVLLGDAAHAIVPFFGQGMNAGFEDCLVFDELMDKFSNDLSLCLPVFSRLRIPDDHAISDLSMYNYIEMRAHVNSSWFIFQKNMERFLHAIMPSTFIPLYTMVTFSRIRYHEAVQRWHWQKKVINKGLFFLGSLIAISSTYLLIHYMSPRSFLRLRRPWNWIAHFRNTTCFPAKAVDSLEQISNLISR

| IC50 (brain KMO; compound preincubated with mitochondria preparation for 30 min before adding the substrate (KYN), compared with IC50 without pre-incubation) | IC50 (brain KMO; in vitro brain KMO, without pre-incubation, KYN 50 µM, 60 min at 37°C, read-out: IC50) [nM] | Structure (SMILES) | IC50 (KMO) [nM] | decrease in GLU concentrations (GLU; 24 h later) [%] | decrease in GLU concentrations (GLU; highest dose (30-100 µmol/kg i.p.), in 2 hrs (maximum), basal 4.3 ± 0.9 µM) [%] | KYNA extracellular concentration, maximum increase (KYNA [1]; hippocampus dialysate, 50 mg/kg ip, 6 hours after drug administration, mean ± SEM, P< 0.01, basal 2.6 ± 0.2 nM) [nM] | brain KYNA content (KYNA [1]; hippocampus, 25 and 50 mg/kg i.p., systemic administration) | dialysate KYNA concentration (KYNA [1]; hippocampus, up to 24 h after both 25 and 50 mg/kg i.p., P<0.05) | brain KYNA content, maximum increase (KYNA [2]; 180 min after drug administration, basal 13.2 ± 0.1 nM) | increase in dialysate KYNA concentration (KYNA [2]; up to 24 h after 100 µmol/kg i.p.) |
| --- | --- | --- | --- | --- | --- | --- | --- | --- | --- | --- |
| – | – | O=C(O)C1CC1C(=O)c1ccc(Cl)c(Cl)c1 (stereo not shown) [2-(3,4-dichlorobenzoyl)-cyclopropane-1-carboxylic acid] | 180 | – | – | – | – | – | – | – |
| not significantly different | 66 | O=C(OC[C@H]1O[C@H](O)[C@H](O)[C@@H](O)[C@H]1O)[C@H]1C[C@@H]1C(=O)c1ccc(Cl)c(Cl)c1 | – | -65 | -78 ± 8 | 26.7 ± 2.2 | dose-dependently increased | significant increase | +750% | +280% |
